# Like-named read-outs stand apart in the source and are kept apart here.
# Experiments:
# HT29 cells = experiment: First order rate constant for anoxic metabolism in HT29 cells (kmet); type: in vitro ADME, human; settings: rate constant of bioreductive metabolism, Table 1
# Method: The apparent first order rate constants for anoxic metabolism in HT29 cells (kmet) of compounds representative of the invention were either: • 1. Estimated at the C10 experimentally by incubating stirred single cell suspensions (typically 10 ml at 2×10^6/ml of HT29 cells derived by trypsinisation of multicellular spheroids) in αMEM without serum in 20 ml bottles under flowing 5% CO2/N2 for 90 min, then introducing the compound using deoxygenated DMSO stock solutions to give a range of final drug concentrations. Samples (0.5 ml) were removed at intervals (typically 5 min, 30 min, 1,2,3 hr), washed by centrifugation, and plated to determine the number of clonogenic survivors as described by Hicks et al Cancer Res. 2003 63, 5970. The concentration of compound giving 1 log of kill at 1 hr (C10) was estimated by interpolation. Additional samples taken at the same times were centrifuged to remove cells, and supernatant stored at −80° C. for subsequent HPLC or LCMS analysis. The concentration of compound in the extracellular medium was plotted against time and the concentration closest to the C10 was used to estimate the first order rate constant. This was scaled to MCL cell density as described in Hicks et al, Cancer Res. 2003, 63, 5970 to obtain kmet. Cell viability was determined with a hemocytometer at the end of drug exposure by staining with 0.4% trypan blue to ensure metabolic viability was >75%. TPZ (30 μM) was included in each experiment as a reference compound. O2, in solution was measured using an OxyLite O2 luminescent fiber optic probe (Oxford Optronix Ltd, UK) to ensure severe hypoxia (<0.1 μM).
# [1] = Solubility in culture medium; type: physicochemical; settings: culture medium (αMEM with 5% foetal bovine serum), plasma or biological fluid, thermodynamic from solid; culture medium (αMEM, 5% foetal bovine serum), pH 7.4; no unit in table, threshold is 2 mM
# Method: Solubility is determined in laboratory culture medium (alpha minimal essential medium (αMEM) with 5% foetal bovine serum) saturated with 5% carbon dioxide at pH 7.4, by addition of excess compound and sonication at ambient temperature for 15 minutes. Alternatively the compound is diluted from a concentrated stock solution in DMSO into culture medium to give a final DMSO concentration <1%. The mixture is centrifuged at 13,000 rpm for 6 minutes and the concentration of drug in the supernatant solution is then determined by HPLC using a standard reference solution in a suitable solvent.
# [2] = system: hypoxic cells in HT29 tumours; experiment: HT29 excision assay (drug after 20 Gy radiation, clonogenic survival); type: in vivo, human; settings: for HT29 log kill: log10 kill of hypoxic cells in HT29 tumours, additional to radiation alone, MTD or 75% of MTD, Table 2
# Excerpt: In order to test the validity of this PK/PD model as a tool for predicting the antitumour activity of TPZ analogues, the inventors determined the key PK/PD parameters for 13 TPZ analogues, and TPZ itself, for the HT29 human colon carcinoma cell line. These parameters were then used to calculate the expected killing in hypoxic regions of HT29 tumours following a single intraperitoneal dose of the compounds at their maximum tolerated dose. The results of this calculation were then compared with measured killing of hypoxic cells in HT29 tumours, determined by administering the compounds immediately (within 5 min) after gamma irradiation (cobalt 60, 20 Gy) to sterilise oxygenated cells in the tumours. Tumours were removed 18 hours later and the number of surviving cells determined by clonogenic assay. The measured PK/PD parameters, model prediction (using the above 3D microvascular network), and experimentally determined hypoxic cell kill is shown in Table 1, and the relationship between predicted and measured cell kill in FIG. 4. The prediction is statistically highly significant (p=0.001, Fisher exact test). […] If the extravascular transport component was excluded from the model, the R^2 for this regression was only 0.28 and the relationship was not statistically significant.
# Animals were treated with radiation alone (RAD, 20 Gy whole body); RAD+TPZ (316 μmol/kg); compound 3 (562 μmol/kg); RAD+compound 3 (562 μmol/kg). Tumours were excised 18 hr after treatment and clonogenic survival determined by staining colonies 14 days later. Each symbol represents a separate tumour. p<0.01 (one way ANOVA with Dunnett's test) for RAD+compound 3 and for RAD+TPZ versus RAD only. Horizontal lines are the historical means for untreated controls (upper line) and 20 Gy radiation only (lower line).
# Compounds were evaluated with single dose radiation using s.c. HT29 tumors (average of two largest diameters 7-10 mm) grown by inoculating 10^7 cells (obtained by enzymatic dissociation of multicellular spheroids). Drugs were administered as single i.p. doses at their MTD with the following groups in each experiment. A: vehicle control, B: test drug, C: Radiation (20 Gy, cobalt-60, whole body irradiation), D: TPZ (316 μmol/kg) 5 min after radiation, E: Test drug 5 min after radiation. Each group included 3 (A, B) or 5 (C-E) mice. Tumors were excised 18 hr after treatment and plated to determine clonogenicity. Hypoxic cytotoxicity is determined by the difference in surviving fraction between groups C and E, while comparison of A and B evaluates oxic cell killing. Total yield of clonogens was used as the key parameter if cell yields were affected by treatment. Results of this assay are illustrated for compound 3 (and TPZ) in FIG. 5.
# [3] = Plasma pharmacokinetics, AUC of free drug in CD-1 nude mice; type: in vivo, mouse; settings: for AUC: CD-1 nude, mouse, ip
# Method: The area under the concentration time curve for free drug (AUCf) in mouse plasma at the maximum tolerated dose (MTD) was determined either experimentally or by calculation.
# The compound was formulated in a suitable vehicle (e.g. 0.9% saline, 5% DMSO in 0.9% saline) and administered intraperitoneally (i.p.) as single dose to CD-1 nude mice in a dose-escalating format using 1.33-fold dose increments.
# The compound was administered to CD-1 nude mice in a suitable formulation as a single dose (i.p.) at the MTD. Blood samples were collected by retro-orbital sinus bleed or cardiac puncture after which the mouse was culled, or by serial bleeding from the tail vein. Typical time points were 15, 30, 60, and 120 min after administration. Blood was collected in a heparinised container and centrifuged to collect the plasma. The plasma concentration of the compound was determined by HPLC or LCMS using suitable sample preparation and analytical methods. Calibration was done with internal or external standards. The area under the concentration-time curve (AUC) for total (free plus bound) drug was calculated using the linear/log trapezoidal rule and extrapolation to infinity OR standard non-compartmental (PK) modelling.
# Plasma protein binding was measured by the determination of the free fraction (FF) by equilibrium dialysis at 37° C. in 50% (v/v) mouse plasma in phosphate-buffered saline (pH 7.4), using a single drug concentration at or near the observed or extrapolated maximum concentration in plasma (Cmax). Compound concentrations after dialysis were determined by HPLC or LCMS.
# AUCf for the compound administered as a single dose (i.p.) to CD-1 nude mice at the MTD can be estimated using the following regression equation: Log10(AUCf)=a+b×log Pneutral+c×log10(IC50)+d×log10(HCR)+e×log10(DMCL)+f×log10(kmet)+g×(log Pneutral)^2 where the coefficients are described in the following table: […]
# [4] = plasma, AUC of free drug, single i.p. dose at maximum tolerated dose, mice, Table 1, read-out: AUCf
# [5] = plasma, mouse plasma, free drug, at the MTD or 75% of the MTD, Table 2, read-out: AUC
# [6] = AUC of free drug, single i.p. dose at maximum tolerated dose, mice, Table 1
SMILES,kmet (HT29 cells) [min⁻¹],solubility [1] [mM],HT29 log kill [2],"AUC [3, 4] [µM·h]","AUC [3, 5] [µM·h]","AUCf [3, 6] [µM·h]","AUC ([3]; in vivo, AUC) [µM·h]","AUC ([3]; in vivo, AUCf) [µM·h]",activity against hypoxic cells in HT29 tumours ([2]; relative to radiation alone)
CN(CCCNC(=O)c1cccc2cc3ccccc3nc12)CCCNc1n[n+]([O-])c2ccccc2[n+]1[O-] [L],9.18,0.45,−0.051,3.6,3.3,,,,
"Nc1n[n+]([O-])c2c(Cl)cccc2[n+]1[O-] [D, 8-Chloro-1,2,4-benzotriazin-3-amine 1,4-Dioxide]",10.03,2.22,−0.154,0.8,0.7,,,,
CCCN(CCC)CCNc1n[n+]([O-])c2ccccc2[n+]1[O-] [G],4.89,26,0.248,,7.1,7.2,,,
"Cc1ccc2c(c1)[n+]([O-])nc(NCCN(C)C)[n+]2[O-] [F, 7-Methyl-N-[2-(dimethylamino)ethyl]-1,2,4-benzotriazin-3-amine 1,4-Dioxide]",2.54,38.7,0.196,3.5,3.9,,,,
COCCc1n[n+]([O-])c2ccccc2[n+]1[O-] [J],2.01,21,0.8,79,83.5,,,,
[O-][n+]1nc(NCCCCCCNc2c3ccccc3nc3ccccc23)[n+]([O-])c2ccccc21 [K],18.33,0.024,0.009,0.042,,,,,
"Nc1n[n+]([O-])c2ccccc2[n+]1[O-] [A, tirapazamine, reference compound]",0.60,8.9,1.17,,,,148,148,
"Cc1ccc2c(c1)[n+]([O-])c(NCCN(C)C)n[n+]2[O-] [H, N^1,N^1-Dimethyl-N^2-(6-methyl-1,4-dioxido-1,2,4-benzotriazin-3-yl)-1,2-ethanediamine]",1.52,52,1.001,,67.8,69.0,,,significant activity
"Cc1ccc2c(c1)[n+]([O-])c(N)n[n+]2[O-] [B, 6-Methyl-1,2,4-benzotriazin-3-amine 1,4-Dioxide]",0.20,3.02,2.165,,216,188.7,,,
"Nc1n[n+]([O-])c2cc(Cl)ccc2[n+]1[O-] [C, 7-Chloro-1,2,4-benzotriazin-3-amine 1,4-Dioxide]",3.92,0.09,−0.007,1.9,2.7,,,,
Cc1ccc2c(c1)[n+]([O-])c(NCCCN(C)CCCNC(=O)c1cccc3cc4ccccc4nc13)n[n+]2[O-] [N],4.74,32.4,0.027,1.3,1.6,,,,
CCc1n[n+]([O-])c2ccccc2[n+]1[O-] [I],1.91,14.5,0.886,141,139,,,,
CN(CCCNC(=O)c1cccc2ccc(-c3ccncc3)nc12)CCCNc1n[n+]([O-])c2ccccc2[n+]1[O-] [M],9.13,3.8,0.138,0.9,1.2,,,,
"CS(=O)(=O)c1ccc2c(c1)[n+]([O-])nc(N)[n+]2[O-] [E, 7-(Methylsulfonyl)-1,2,4-benzotriazin-3-amine 1,4-Dioxide]",1.00,0.49,−0.028,15.6,15.6,,,,
